Test results as given in patent US7452546B2, “Particles containing agricultural active ingredients” (priority 1997, dated 2008).
Like-named read-outs stand apart in the source and are kept apart here.

Assays:
plants = conditions: cited from earlier work
[1] = Water saturation concentration of active ingredient; assay type: physicochemical; conditions: room temperature stated for epoxiconazole
[2] = The Pesticide Manual, Eleventh Edition, 1997

Row | SMILES | phytotoxicity to plants (plants; [2]) | water saturation concentration [1] | phytotoxicity to plants (plants; in vivo)
1 | CC(C)(C)C(O)C(Oc1ccc(-c2ccccc2)cc1)n1cncn1 (stereo not drawn) [bitertanol] | can cause damage to fruit crops |  | 
2 | Fc1ccc([C@]2(Cn3cncn3)O[C@H]2c2ccccc2Cl)cc1 (racemic) [epoxiconazole] |  | 7 ppm | 
3 | CC(C)(C)C(O)(CCc1ccc(Cl)cc1)Cn1cncn1 (stereo not drawn) [tebuconazole] |  | 32 ppm | 
4 | CC1(C)CCC(Cc2ccc(Cl)cc2)C1(O)Cn1cncn1 (stereo not drawn) [metconazole] |  |  | can cause stunting and yellowing of plants
5 | CCCCC(O)(Cn1cncn1)c1ccc(Cl)cc1Cl (stereo not drawn) [hexaconazole] |  |  | can cause damage to McIntosh apples
6 | CC1COC(Cn2cncn2)(c2ccc(Oc3ccc(Cl)cc3)cc2Cl)O1 (stereo not drawn) [difenoconazole] | can cause chlorosis in wheat |  | 
